The test deals with HeLa cells. Nature of the test: CFTR protein expression assay in HeLa cells (LNPs of Example 2, immunofluorescence). In kind it is cell-based, Human. The following applies: compared to buffer (PBS) control, 5 h transfection, 24 h incubation, N=4 wells. The protocol:
Lipid nanoparticles were prepared using ethanol drop nanoprecipitation followed by solvent exchange into suitable aqueous buffer using dialysis. An exemplary lipid nanoparticle composition can be prepared by a process where lipids are dissolved in ethanol at a concentration of 12.5 mM and molar ratios of 33:15:11:39.5:1.5 (e.g., ionizable lipid:SA46:phospholipid:cholesterol:PL1). Lipid to mRNA is maintained at a N/P ratio of 4.9. Then mRNA is diluted with 25 mM sodium acetate (pH 5.0) and combined with the lipid mixture at a volume ratio of 3:1 (aqueous: ethanol). Resulting formulations are dialyzed against 20 mM tris/8% sucrose/70 mM sodium chloride (pH 7.4) at a volume of 300 times that of the primary product using Slide-A-Lyzer dialysis cassettes (Thermo Scientific, Rockford, IL, USA) with a molecular cutoff of 10 KDa for at least 18 h. The first dialysis is carried out at room temperature in a digital orbital shaker (VWR, Radnor, PA, USA) at 85 rpm for 3 h and then dialyzed overnight at 4° C. Formulations are concentrated using Amicon ultra-centrifugal filters (EMD Millipore, Billerica, MA, USA), passed through a 0.22-μm filter and stored at 4° C. until use. Lipid nanoparticle solutions are typically adjusted to specific mRNA concentrations between 0.1 and 1 mg/mL. LNPs were prepared according to Example 2. To evaluate LNP cellular uptake and protein expression in vitro, HeLa cells from ATCC.org (ATCC CCL-2) are used. The cells are cultured in complete Minimum Essential Medium (MEM) and are plated in 96 well Cell Carrier Ultra plate with PDL coated surface (PerkinElmer) prior to running an experiment. Buffer control (PBS) and LNPs encapsulating cystic fibrosis transmembrane conductance regulator (CFTR) mRNA were dosed with MEM media in the absence of serum (N=4 replicate wells). LNP transfected cells were incubated for 5 h, followed by media removal and supplementation with complete MEM media. Cells were further incubated in complete MEM media overnight (24 h). Following 24 hr incubation, the cells were fixed with PFA and processed for immunofluorescence (IF) using an anti-CFTR rabbit monoclonal antibody. Briefly, the cells were permeabilized with 0.5% TX-100 for 10 min, blocked with 3% bovine serum albumin (BSA)+PBST for 1 hr at room temperature, and incubated with primary anti-CFTR monoclonal antibody overnight at 4° C. Following primary antibody incubation, the cells were incubated with Alexa 488 conjugated secondary antibody for 30 min, and stained with DAPI and HCS CellMask Blue stain. Between different incubation steps the cells were either washed with PBS or PBST. Cells were imaged using Opera Phoenix spinning disk confocal microscope (PerkinElmer), and CFTR protein expression was detected using the 488 nm channel. The image analysis was performed in Harmony 4.9, with main analysis output being CFTR intensity per cell. The results shown in Table 3a show fold-change in CFTR signal intensity per cell compared to buffer (PBS) control (nanoparticle composition: IL1:Lipid Amine:DSPC:Chol:PL1). The results shown in Table 3b show fold-change in CFTR signal intensity per cell compared to buffer (PBS) control (nanoparticle composition: IL1:Lipid Amine:DPPC:Chol:PL1).

[1] abbreviates: LNP IL1:Lipid Amine:DPPC:Chol:PL1 with CFTR mRNA.
[2] abbreviates: LNP IL1:Lipid Amine:DSPC:Chol:PL1 with CFTR mRNA.

Molecules are shown by their SMILES.

Regarding `CC[C@H](CC[C@@H](C)[C@H]1CC[C@H]2[C@@H]3CC=C4C[C@@H](OC(=O)NCCCN(C)C)CC[C@]4(C)[C@H]3CC[C@]12C)C(C)C` [SA46, (3S,8S,9S,10R,13R,14S,17R)-17-((2R,5R)-5-Ethyl-6-methylheptan-2-yl)-10,13-dimethyl-2,3,4,7,8,9,10,11,12,13,14,15,16,17-tetradecahydro-1H-cyclopenta[a]phenanthren-3-yl (3-(dimethylamino)propyl)carbamate], the “Average fold-change in CFTR signal intensity per cell ± standard deviation” value came out at 10.2 ± 0.2 fold-change under setting [1] and 4.7 ± 0.2 fold-change under setting [2].
Take `CC[C@H](CC[C@@H](C)[C@H]1CC[C@H]2[C@@H]3CC=C4C[C@@H](OC(=O)NCCCCN(C)C)CC[C@]4(C)[C@H]3CC[C@]12C)C(C)C` [SA47, (3S,8S,9S,10R,13R,14S,17R)-17-((2R,5R)-5-Ethyl-6-methylheptan-2-yl)-10,13-dimethyl-2,3,4,7,8,9,10,11,12,13,14,15,16,17-tetradecahydro-1H-cyclopenta[a]phenanthren-3-yl (4-(dimethylamino)butyl)carbamate]: the “Average fold-change in CFTR signal intensity per cell ± standard deviation” value reads like this: under setting [1], 10.9 ± 0.4 fold-change; under setting [2], 4.6 ± 0.4 fold-change.
With `CC[C@H](CC[C@@H](C)[C@H]1CC[C@H]2[C@@H]3CC=C4C[C@@H](OC(=O)NCCN(CCO)CCO)CC[C@]4(C)[C@H]3CC[C@]12C)C(C)C` [SA48, (3S,8S,9S,10R,13R,14S,17R)-17-((2R,5R)-5-Ethyl-6-methylheptan-2-yl)-10,13-dimethyl-2,3,4,7,8,9,10,11,12,13,14,15,16,17-tetradecahydro-1H-cyclopenta[a]phenanthren-3-yl (2-(bis(2-hydroxyethyl)amino)ethyl)carbamate], the “Average fold-change in CFTR signal intensity per cell ± standard deviation” value turned out to be 5.3 ± 1.0 fold-change under setting [1] and 4.4 ± 0.3 fold-change under setting [2].
Take `CC[C@H](CC[C@@H](C)[C@H]1CC[C@H]2[C@@H]3CC=C4C[C@@H](OC(=O)NCCOCCN(C)C)CC[C@]4(C)[C@H]3CC[C@]12C)C(C)C` [SA49, (3S,8S,9S,10R,13R,14S,17R)-17-((2R,5R)-5-Ethyl-6-methylheptan-2-yl)-10,13-dimethyl-2,3,4,7,8,9,10,11,12,13,14,15,16,17-tetradecahydro-1H-cyclopenta[a]phenanthren-3-yl (2-(2-(dimethylamino)ethoxy)ethyl)carbamate]: the “Average fold-change in CFTR signal intensity per cell ± standard deviation” value turned out to be 1 ± 0.0 fold-change under setting [1] and 1.1 ± 0.0 fold-change under setting [2].
On to `CC[C@H](CC[C@@H](C)[C@H]1CC[C@H]2[C@@H]3CC=C4C[C@@H](OC(=O)NCC(C)(C)N(C)C)CC[C@]4(C)[C@H]3CC[C@]12C)C(C)C` [SA53, (3S,8S,9S,10R,13R,14S,17R)-17-((2R,5R)-5-Ethyl-6-methylheptan-2-yl)-10,13-dimethyl-2,3,4,7,8,9,10,11,12,13,14,15,16,17-tetradecahydro-1H-cyclopenta[a]phenanthren-3-yl (2-(dimethylamino)-2-methylpropyl)carbamate], for which the “Average fold-change in CFTR signal intensity per cell ± standard deviation” value reads like this: under setting [1], 13.0 ± 1.2 fold-change; under setting [2], 4.4 ± 0.8 fold-change.
The corresponding values for `CC[C@H](CC[C@@H](C)[C@H]1CC[C@H]2[C@@H]3CC=C4C[C@@H](OC(=O)NCC5(N(C)C)CC5)CC[C@]4(C)[C@H]3CC[C@]12C)C(C)C` [SA54, (3S,8S,9S,10R,13R,14S,17R)-17-((2R,5R)-5-Ethyl-6-methylheptan-2-yl)-10,13-dimethyl-2,3,4,7,8,9,10,11,12,13,14,15,16,17-tetradecahydro-1H-cyclopenta[a]phenanthren-3-yl ((1-(dimethylamino)cyclopropyl)methyl)carbamate] are 1.3 ± 0.1 fold-change and 1.5 ± 0.1 fold-change.
The matching figures for `CC[C@H](CC[C@@H](C)[C@H]1CC[C@H]2[C@@H]3CC=C4C[C@@H](OC(=O)NCC(C)(C)N)CC[C@]4(C)[C@H]3CC[C@]12C)C(C)C.Cl` [SA55, (3S,8S,9S,10R,13R,14S,17R)-17-((2R,5R)-5-Ethyl-6-methylheptan-2-yl)-10,13-dimethyl-2,3,4,7,8,9,10,11,12,13,14,15,16,17-tetradecahydro-1H-cyclopenta[a]phenanthren-3-yl (2-amino-2-methylpropyl)carbamate Hydrochloride]: 12.1 ± 0.7 fold-change and 4.9 ± 0.2 fold-change.

The record behind these values is patent publication US20250281419A1, “LIPID AMINES” (ModernaTX, Inc., priority 2021, published 2025).
